Measured values as given in paper PMC8380825 (Journal of molecular biology, 2021).
Where no end group is shown, it is not given here.

Columns and labels:
NPR-1 mutants [1] = molecular target: NPR-1 mutants (Caenorhabditis elegans, UniProt Q18534, E180D); assay: cAMP reporter gene assay; type: cell-based, C. elegans
NPR-1 mutants [2] = molecular target: NPR-1 mutants (Caenorhabditis elegans, UniProt Q18534, D315A); assay: cAMP reporter gene assay; type: cell-based, C. elegans; conditions: NPR-1 D^7.26A mutant
Chain of NPR-1 mutants (Caenorhabditis elegans, UniProt Q18534, D315A) (Q18534 whole entry D315A): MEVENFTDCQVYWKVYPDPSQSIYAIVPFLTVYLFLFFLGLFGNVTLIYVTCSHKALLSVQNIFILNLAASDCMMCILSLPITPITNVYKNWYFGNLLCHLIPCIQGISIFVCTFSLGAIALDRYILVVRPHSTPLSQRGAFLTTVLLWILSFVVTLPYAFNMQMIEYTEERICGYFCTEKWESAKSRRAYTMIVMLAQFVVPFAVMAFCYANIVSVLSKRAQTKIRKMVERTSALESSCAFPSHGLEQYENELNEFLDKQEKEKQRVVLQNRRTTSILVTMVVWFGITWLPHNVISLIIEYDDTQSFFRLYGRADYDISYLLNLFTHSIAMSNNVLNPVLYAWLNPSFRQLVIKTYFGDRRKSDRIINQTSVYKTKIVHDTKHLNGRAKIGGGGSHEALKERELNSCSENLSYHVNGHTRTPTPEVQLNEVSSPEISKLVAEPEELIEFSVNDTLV

NPR-1 mutants [3] = molecular target: NPR-1 mutants (Caenorhabditis elegans, UniProt Q18534, E180A); assay: cAMP reporter gene assay; type: cell-based, C. elegans
Chain of NPR-1 mutants (Caenorhabditis elegans, UniProt Q18534, E180A) (Q18534 whole entry E180A): as the sequence (Q18534 whole entry D315A) above, with E180A, A315D counted along it

NPR-1 mutants [4] = molecular target: NPR-1 mutants (Caenorhabditis elegans, UniProt Q18534, D316A); assay: cAMP reporter gene assay; type: cell-based, C. elegans; conditions: NPR-1 D^7.27A mutant
Chain of NPR-1 mutants (Caenorhabditis elegans, UniProt Q18534, D316A) (Q18534 whole entry D316A): as the sequence (Q18534 whole entry D315A) above, with A315D, D316A counted along it

NPR-1 mutants [5] = molecular target: NPR-1 mutants (Caenorhabditis elegans, UniProt Q18534, E301D); assay: cAMP reporter gene assay; type: cell-based, C. elegans
Chain of NPR-1 mutants (Caenorhabditis elegans, UniProt Q18534, E301D) (Q18534 whole entry E301D): as the sequence (Q18534 whole entry D315A) above, with E301D, A315D counted along it

NPR-1 mutants [6] = molecular target: NPR-1 mutants (Caenorhabditis elegans, UniProt Q18534, E301A); assay: cAMP reporter gene assay; type: cell-based, C. elegans
Chain of NPR-1 mutants (Caenorhabditis elegans, UniProt Q18534, E301A) (Q18534 whole entry E301A): as the sequence (Q18534 whole entry D315A) above, with E301A, A315D counted along it

NPR-1 mutants [7] = assay: cAMP reporter gene assay; type: cell-based, C. elegans; conditions: mutation of T^2.61 and Q^3.32 of NPR-1
NPR-1 mutants [8] = molecular target: NPR-1 mutants (Caenorhabditis elegans, UniProt Q18534, D303A/D304A/E301A); assay: cAMP reporter gene assay; type: cell-based, C. elegans
Chain of NPR-1 mutants (Caenorhabditis elegans, UniProt Q18534, D303A/D304A/E301A) (Q18534 whole entry E301A/D303A/D304A): as the sequence (Q18534 whole entry D315A) above, with E301A, D303A, D304A, A315D counted along it

NPR-1 mutants [9] = molecular target: NPR-1 mutants (Caenorhabditis elegans, UniProt Q18534, E180Q); assay: cAMP reporter gene assay; type: cell-based, C. elegans
Chain of NPR-1 mutants (Caenorhabditis elegans, UniProt Q18534, E180Q) (Q18534 whole entry E180Q): as the sequence (Q18534 whole entry D315A) above, with E180Q, A315D counted along it

NPR-11 mutants [10] = molecular target: NPR-11 mutants (Caenorhabditis elegans, UniProt Q18179, Q119A); assay: cAMP reporter gene assay; type: cell-based, C. elegans
Chain of NPR-11 mutants (Caenorhabditis elegans, UniProt Q18179, Q119A) (Q18179 whole entry Q119A): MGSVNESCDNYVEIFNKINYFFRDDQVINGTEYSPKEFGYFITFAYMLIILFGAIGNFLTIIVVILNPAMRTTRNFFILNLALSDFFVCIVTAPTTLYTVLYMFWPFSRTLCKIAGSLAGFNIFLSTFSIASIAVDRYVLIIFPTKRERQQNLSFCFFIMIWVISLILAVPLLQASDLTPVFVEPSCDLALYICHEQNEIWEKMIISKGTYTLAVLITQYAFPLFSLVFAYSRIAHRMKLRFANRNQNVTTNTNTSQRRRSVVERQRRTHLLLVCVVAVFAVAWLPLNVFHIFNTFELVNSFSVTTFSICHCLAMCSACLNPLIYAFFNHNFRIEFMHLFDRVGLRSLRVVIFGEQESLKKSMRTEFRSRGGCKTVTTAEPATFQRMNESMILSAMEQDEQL

NPR-11 mutants [11] = molecular target: NPR-11 mutants (Caenorhabditis elegans, UniProt Q18179, E199A); assay: cAMP reporter gene assay; type: cell-based, C. elegans; conditions: NPR-11 E^5.26A
Chain of NPR-11 mutants (Caenorhabditis elegans, UniProt Q18179, E199A) (Q18179 whole entry E199A): as the sequence (Q18179 whole entry Q119A) above, with A119Q, E199A counted along it

NPR-11 mutants [12] = molecular target: NPR-11 mutants (Caenorhabditis elegans, UniProt Q18179, T96A); assay: cAMP reporter gene assay; type: cell-based, C. elegans; conditions: NPR-11 T^2.61A
Chain of NPR-11 mutants (Caenorhabditis elegans, UniProt Q18179, T96A) (Q18179 whole entry T96A): as the sequence (Q18179 whole entry Q119A) above, with T96A, A119Q counted along it

NPR-11 mutants [13] = molecular target: NPR-11 mutants (Caenorhabditis elegans, UniProt Q18179, E196A); assay: cAMP reporter gene assay; type: cell-based, C. elegans
Chain of NPR-11 mutants (Caenorhabditis elegans, UniProt Q18179, E196A) (Q18179 whole entry E196A): as the sequence (Q18179 whole entry Q119A) above, with A119Q, E196A counted along it

NPR-11 mutants [14] = molecular target: NPR-11 mutants (Caenorhabditis elegans, UniProt Q18179, E196D); assay: cAMP reporter gene assay; type: cell-based, C. elegans; conditions: NPR-11 E^5.23D
Chain of NPR-11 mutants (Caenorhabditis elegans, UniProt Q18179, E196D) (Q18179 whole entry E196D): as the sequence (Q18179 whole entry Q119A) above, with A119Q, E196D counted along it

NPR-11 mutants [15] = assay: cAMP reporter gene assay; type: cell-based, C. elegans
NPR-11 mutants [16] = molecular target: NPR-11 mutants (Caenorhabditis elegans, UniProt Q18179, F307A); assay: cAMP reporter gene assay; type: cell-based, C. elegans; conditions: NPR-11 F^7.35A
Chain of NPR-11 mutants (Caenorhabditis elegans, UniProt Q18179, F307A) (Q18179 whole entry F307A): as the sequence (Q18179 whole entry Q119A) above, with A119Q, F307A counted along it

NPR-11 mutants [17] = molecular target: NPR-11 mutants (Caenorhabditis elegans, UniProt Q18179, Q119H); assay: cAMP reporter gene assay; type: cell-based, C. elegans; conditions: NPR-11 Q^3.32H
Chain of NPR-11 mutants (Caenorhabditis elegans, UniProt Q18179, Q119H) (Q18179 whole entry Q119H): as the sequence (Q18179 whole entry Q119A) above, with A119H counted along it

NPR-11 mutants [18] = molecular target: NPR-11 mutants (Caenorhabditis elegans, UniProt Q18179, E196Q); assay: cAMP reporter gene assay; type: cell-based, C. elegans
Chain of NPR-11 mutants (Caenorhabditis elegans, UniProt Q18179, E196Q) (Q18179 whole entry E196Q): as the sequence (Q18179 whole entry Q119A) above, with A119Q, E196Q counted along it

NPR-11 [19] = molecular target: T1, NPR-11 (Caenorhabditis elegans, UniProt Q18179); assay: cAMP reporter gene assay; type: cell-based, C. elegans
T1 sequence (Q18179 1-402): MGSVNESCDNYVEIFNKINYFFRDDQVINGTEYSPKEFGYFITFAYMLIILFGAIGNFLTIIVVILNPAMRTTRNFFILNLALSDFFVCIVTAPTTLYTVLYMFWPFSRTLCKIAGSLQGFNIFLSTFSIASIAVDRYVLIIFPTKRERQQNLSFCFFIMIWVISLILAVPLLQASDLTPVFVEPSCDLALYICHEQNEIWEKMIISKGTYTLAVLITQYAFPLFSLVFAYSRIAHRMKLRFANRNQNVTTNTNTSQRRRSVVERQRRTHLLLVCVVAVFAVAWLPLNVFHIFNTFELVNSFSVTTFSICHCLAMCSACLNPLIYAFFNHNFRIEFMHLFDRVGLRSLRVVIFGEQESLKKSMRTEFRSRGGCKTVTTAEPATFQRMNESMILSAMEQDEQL

NPR-1 [20] = molecular target: T2, NPR-1 (Caenorhabditis elegans, UniProt Q18534); conditions: read-out: EC50 at NPR-1; ref [13]; cited from earlier work
T2 sequence (Q18534 1-457): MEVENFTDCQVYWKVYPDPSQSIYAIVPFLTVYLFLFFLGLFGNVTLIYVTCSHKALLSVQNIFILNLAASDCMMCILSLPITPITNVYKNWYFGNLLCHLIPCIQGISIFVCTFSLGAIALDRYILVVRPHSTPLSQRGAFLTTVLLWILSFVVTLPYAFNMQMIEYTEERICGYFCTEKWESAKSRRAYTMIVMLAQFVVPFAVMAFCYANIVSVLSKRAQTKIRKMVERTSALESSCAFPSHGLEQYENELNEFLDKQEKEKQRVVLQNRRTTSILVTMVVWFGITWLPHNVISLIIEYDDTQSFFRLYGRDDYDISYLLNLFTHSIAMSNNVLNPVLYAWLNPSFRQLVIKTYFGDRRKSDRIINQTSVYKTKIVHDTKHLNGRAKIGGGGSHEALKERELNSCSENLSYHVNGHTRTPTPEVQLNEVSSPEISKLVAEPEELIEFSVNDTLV

NPR-11 [21] = molecular target: T1, NPR-11; assay: NanoBRET displacement binding assay, Nluc-NPR-11 wild type; parameters: species or system C. elegans
NPR-1 [22] = molecular target: T2, NPR-1; assay: cAMP reporter gene assay; type: cell-based, C. elegans; conditions: wild type NPR-1
[23] = molecular target: Q^3.32A variant of NPR-11 (Caenorhabditis elegans, UniProt Q18179, Q119A); assay: NanoBRET displacement binding assay, Nluc-NPR-11 Q^3.32A variant; parameters: species or system C. elegans
Chain of Q^3.32A variant of NPR-11 (Q18179 whole entry Q119A): as the sequence (Q18179 whole entry Q119A) above

Chain of NPR-1 mutants (Caenorhabditis elegans, UniProt Q18534, E180D) (Q18534 whole entry E180D): as the sequence (Q18534 whole entry D315A) above, with E180D, A315D counted along it

## GLGPRPLRF-NH2 [FLP-21]
NPR-1 mutants [1]
  EC50: 495 nM
NPR-1 mutants [1]; NPR-1 E^5.27D
  EC50 shift relative to wild type receptor: > 600 fold
NPR-1 mutants [2]
  EC50 shift relative to wild type receptor: < 5 fold
NPR-1 mutants [3]
  EC50: > 10000 nM
NPR-1 mutants [4]
  EC50 shift relative to wild type receptor: < 5 fold
NPR-1 mutants [5]
  EC50: 0.13 nM
NPR-1 mutants [6]
  EC50: 20 nM
NPR-1 mutants [6]; NPR-1 E^6.59A
  EC50 shift relative to wild type NPR-1: 25 fold
NPR-1 mutants [7]
  decrease of receptor activation relative to wild type receptor: > 30 fold
NPR-1 mutants [8]
  EC50: > 10000 nM
NPR-1 mutants [9]
  EC50: > 10000 nM
NPR-11 mutants [10]
  EC50: 0.1 nM
NPR-11 mutants [10]; NPR-11 Q^3.32A
  EC50 as fold of the wild type receptor: 0.002 fold
  gain of function relative to wild type receptor: > 500 fold
NPR-11 mutants [11]
  receptor activation in words: inactive
NPR-11 mutants [12]
  EC50 shift relative to wild type receptor: 4 fold
NPR-11 mutants [13]
  EC50: > 10000 nM
NPR-11 mutants [14]
  decreased potency relative to wild type receptor: > 70 fold
NPR-11 mutants [15]; NPR-11 E^5.26 mutated to glutamine or aspartate
  receptor activation in words: behaved like wild type
NPR-11 mutants [15]; NPR-11 F^7.35 to histidine or leucine
  EC50 shift relative to wild type receptor: > 200 fold
NPR-11 mutants [15]; NPR-11 T^6.59 and N^6.58 alanine mutants
  receptor activation in words: wild type-like activities
NPR-11 mutants [16]
  receptor activation in words: inactive
NPR-11 mutants [17]
  receptor activation in words: did not affect activation
NPR-11 mutants [18]
  EC50: > 10000 nM
NPR-11 [19]; EC50 NPR-11 versus EC50 NPR-1
  reduced potency at NPR-11 compared to NPR-1: 64 fold

## RGPSGPLRF-NH2 [FLP-15–2]
NPR-1 [20]
  EC50: 22 nM

## [L^7A]-FLP-21: FLP-21 variant, L^7 to alanine (GLGPRPARF-NH2)
NPR-11 [21]
  reduction of Ki relative to FLP-21: less than 10 fold
NPR-1 [22]
  EC50 shift (loss of potency) relative to wild type FLP-21: 497 fold
[23]
  reduction of Ki compared to FLP-21: 100 fold
NPR-11 mutants [10]; NPR-11 Q^3.32A
  EC50 shift compared to FLP-21 at the same receptor mutant: 300 fold
NPR-11 [19]; wild type NPR-11
  EC50 shift relative to wild type FLP-21: 10 fold
